We go through 2 compounds from patent US4771076A, “[(2-substituted 1,2-dihydro-1-oxo-1H-inden-5-yl)oxy]alkanesulfonic acids and salts thereof” (Merck & Co., Inc., priority 1987, dated 1988).

Each structure is given as a SMILES string.

In the assay the test system is cerebrocortical cat brain tissue slice. The assay is described as follows: In vitro Cerebrocortical Cat Brain Tissue Slice Assay (inhibition of HCO3^- -stimulated swelling). Type of assay: cell-based. The settings on record: Felis catus, 1 h, 27 mM K^+, 10 mM HCO3^-, 37° C., 60 min incubation. As to the method:
See, e.g., Bourke et al., Neurochem. Res., 8, 5 (1983), and Cragoe et al., J. Med. Chem., 25, 567 (1982).
In Vitro Cerebrocortical Cat Brain Tissue Slice Assay
Adult cats of 2-3 kg body weight were employed in tissue slice studies. Prior to sacrifice, the animals were anesthetized with ketamine hydrochloride, 10 mg/kg intramuscularly. Eight (three control, five experimental) pial surface cerebrocortical tissue slices (0.5 mm thick; approximately 150 mg initial fresh weight) were cut successively with a calibrated Stadie-Riggs fresh tissue microtome without moistening and weighed successively on a torsion balance. […]
Following the 60-minute incubation period, tissue slices were separated from incubation medium by filtration, reweighed, and homogenized in 1N HClO4 (10% w/v) for electrolyte analysis. […] Control slice swelling is expressed as microliters per gram initial preswelling fresh weight. The effectiveness of an inhibitor at a given concentration was measured by the amount of HCO3^- -stimulated swelling that occurred in its presence, computed as a percent of the maximum possible and is reported as an IC50, (See, e.g., Table I (Example 6)). Tissue and media Na^+ and K^+ levels were determined by emission flame photometry with Li^+ internal standard; Cl^- levels were determined by amperometric titration. Tissue viability during incubation is monitored by manometry.

In the case of `CC1(C2CCCC2)Cc2cc(OCCCS(=O)(=O)O)c(Cl)c(Cl)c2C1=O` (single isomer, unassigned) [Example 2, Sodium (+)3-[(6,7-dichloro-2-cyclopentyl-2-methyl-1-oxo-2,3-dihydro-1H-inden-5-yl)oxy]propanesulfonate hydrate], the IC50 was 20 nM.

For `CC1(C2CCCC2)Cc2cc(OCCCS(=O)(=O)O)c(Cl)c(Cl)c2C1=O` (centres unmarked) [Example 1, Sodium 3-[(6,7-dichloro-2-cyclopentyl-2-methyl-1-oxo-2,3-dihydro-1H-inden-5-yl)oxy]propanesulfonate hydrate], the IC50 was 20 nM.

Broadly, the IC50 is the concentration needed to halve the response being measured.
